Publication PMC6274563, “Synthesis and In Vitro Anti Leishmania amazonensis Biological Screening of Morita-Baylis-Hillman Adducts Prepared from Eugenol, Thymol and Carvacrol” (Molecules, 2016)
Where two headings read alike, the source gives them in different places.

Experiments:
[1] = system: promastigotes of Leishmania amazonensis (IFLA/BR/67/PH8); assay: Antileishmanial activity against promastigotes (MTT viability); format: cell-based
Method: The promastigote viabilities were determined by the ability of living cells to reduce the yellow MTT (3-(4,5-dimethylthiazol-2-yl)-2,5-diphenyltetrazolium bromide, a tetrazole) to purple formazan. Promastigote forms of Leishmania amazonensis (IFLA/BR/67/PH8) in the log phase of growth were incubated at 25 °C in 96-well cellular culture plates (TPP, Trasadingen, Switzerland) with 1 × 10^5 cells/well in 100 μL Schneider’s Drosophila medium supplemented with 20% of FBS in the presence or absence of different concentrations of compounds 4–15. The growth of promastigotes forms was evaluated simultaneously in the presence of Glucantime®, as reference drug. After 72 h of incubation, […] of a 5 mg·mL^−1 MTT solution was added. After 4 h of incubation at 25 °C, the formed product formazan was dissolved in […] of sodium dodecyl sulfate (SDS) at 10% for 24 h, and the absorbance was measured by spectrophotometry at a 545 nm wavelength. The percentage viability was calculated from the ratio of OD readings in the wells with compounds versus the wells without compounds × 100. The concentration that inhibited 50% of growth (IC50) was determined by regression analysis using the SPSS 8.0 software for Windows (IBM, New York, NY, USA). All experiments were performed at least three times, and each experiment was performed in triplicate. […]

human red blood cells = assay: Haemolytic assay; format: cell-based; conditions: for SIrb (selectivity index on red blood cell) = HC50/IC50: HC50 on red blood cells / IC50 on L. amazonensis promastigotes
[2] = Leishmania amazonensis, promastigotes of L. amazonensis, 72 h incubation, MTT, average of three independent experiments ± standard error of the mean, read-out: IC50
[3] = haemolysis of human red blood cells

Row | Molecule | IC50 [1, 2] [µM] | SIrb (selectivity index on red blood cell) = HC50/IC50 (human red blood cells) | HC50 (human red blood cells; [3]) [µM] | also measured
1 | C[C@@H]1[C@H](O)[C@@H](C)/C=C/C=C/C=C/C=C/C=C/C=C/C=C/[C@H](O[C@@H]2O[C@H](C)[C@@H](O)[C@H](N)[C@@H]2O)C[C@@H]2O[C@](O)(C[C@@H](O)C[C@@H](O)[C@H](O)CC[C@@H](O)C[C@@H](O)CC(=O)O[C@H]1C)C[C@H](O)[C@H]2C(=O)O [AmphotericinB, amphotericin B] | 0.52 ± 0.03 | 22.34 | 11.61 | 
2 | C=CCc1ccc(O)c(OC)c1 [Compound 4, eugenol] |  | >5.18 | >400 | IC50 ([1]; Leishmania amazonensis, 72 h): 77.2 ± 1.77 µM
3 | Cc1ccc(C(C)C)c(O)c1 [Compound 5, thymol] | 115 ± 5.77 |  |  | 
4 | Cc1ccc(C(C)C)cc1O [Compound 6, carvacrol] |  |  |  | IC50 ([1]; Leishmania amazonensis, 72 h): 138 ± 6.91 µM
5 | C=CCc1ccc(OC(=O)C(=C)C(O)c2ccc([N+](=O)[O-])cc2)c(OC)c1 (stereo not shown) [Compound 7, 4-Allyl-2-methoxyphenyl 2-(hydroxy(4-nitrophenyl)methyl)acrylate] | 8.75 ± 0.44 | >45.71 | >400 | 
6 | C=CCc1ccc(OC(=O)C(=C)C(O)c2cccc([N+](=O)[O-])c2)c(OC)c1 (stereo not shown) [Compound 8, 4-Allyl-2-methoxyphenyl-2-(hydroxy(3-nitrophenyl)methyl)acrylate] | 10.5 ± 0.52 | >38.13 | >400 | 
7 | C=CCc1ccc(OC(=O)C(=C)C(O)c2ccccc2[N+](=O)[O-])c(OC)c1 (stereo not shown) [Compound 9, 4-Allyl-2-methoxyphenyl 2-(hydroxy(2-nitrophenyl)methyl)acrylate] | 4.71 ± 0.24 | >84.92 | >400 | 
8 | C=C(C(=O)Oc1cc(C)ccc1C(C)C)C(O)c1ccc([N+](=O)[O-])cc1 (stereo not shown) [Compound 10, 2-Isopropyl-5-methylphenyl 2-(hydroxy(4-nitrophenyl)methyl)acrylate] | 11.4 ± 0.57 |  |  | 
9 | C=C(C(=O)Oc1cc(C)ccc1C(C)C)C(O)c1cccc([N+](=O)[O-])c1 (stereo not shown) [Compound 11, 2-Isopropyl-5-methylphenyl 2-(hydroxy(3-nitrophenyl)methyl)acrylate] | 10.6 ± 0.53 |  |  | 
10 | C=C(C(=O)Oc1cc(C)ccc1C(C)C)C(O)c1ccccc1[N+](=O)[O-] (stereo not shown) [Compound 12, 2-Isopropyl-5-methylphenyl 2-(hydroxy(2-nitrophenyl)methyl)acrylate] | 5.91 ± 0.3 |  |  | 
11 | C=C(C(=O)Oc1cc(C(C)C)ccc1C)C(O)c1ccc([N+](=O)[O-])cc1 (stereo not shown) [Compound 13, 5-Isopropyl-2-methylphenyl 2-(hydroxy(4-nitrophenyl)methyl)acrylate] | 18.1 ± 0.9 |  |  | 
12 | C=C(C(=O)Oc1cc(C(C)C)ccc1C)C(O)c1cccc([N+](=O)[O-])c1 (stereo not shown) [Compound 14, 5-Isopropyl-2-methylphenyl 2-(hydroxy(3-nitrophenyl)methyl)acrylate] | 22.3 ± 1.12 |  |  | 
13 | C=C(C(=O)Oc1cc(C(C)C)ccc1C)C(O)c1ccccc1[N+](=O)[O-] (stereo not shown) [Compound 15, 5-Isopropyl-2-methylphenyl 2-(hydroxy(2-nitrophenyl)methyl)acrylate] | 13.6 ± 0.68 |  |  | 
14 | Glucantime^® |  |  |  | IC50 ([1]; promastigotes of L. amazonensis, 72 h incubation, MTT, average of three independent experiments ± standard error of the mean, read-out: IC50): 1630 ± 437 µM; HC50 (human red blood cells): 1175.02 µM
